Test [1] has as its system bone marrow cells. The test can be described thus: Bone marrow cell proliferation in vitro ([3H]-thymidine incorporation assay). In kind it is cell-based, C57BL/6J mice. On the procedure:
All drugs were purchased from Sigma Chemical Co. St. Louis, Mo. Adenosine was dissolved in water and kept as a stock solution in a concentration of 1 mM. For in vitro studies, dilutions in RPMI medium were carried out and final concentrations of 100, 50, 25, 10 and 5 μM were used. For in vivo studies, the stock solution was diluted with PBS to a concentration of […] and 0.5 ml was injected intraperitoneally to mice. 1,3-dipropyl-8-cyclopentylxanthine (DPCPX), an adenosine A1 receptor antagonist, 3,7-dimethyl-1-propargyl-xanthine (DMPX) an A2 receptor antagonist and N-cyclopentyladenosine (CPA), a selective A1 receptor agonist were added to a culture of proliferating bone marrow cells.
Bone marrow cells were obtained from the femur of C57BL/6J mice. Cells were disaggregated by passing through a 25G needle. [^3H]-Thymidine incorporation assay was used to evaluate the proliferative capability of the bone marrow cells.
Cells (3×10^4/well were incubated with RPMI medium, containing 10% fetal calf serum (FCS) (Biological Industries, Beit Haemek, Israel) and adenosine, adenosine antagonists or the agonist in 96 microtiter plates for 48 h. Cultures containing cells were suspended in RPMI medium and 10% FCS served as controls. In the last 6 hours of incubation, each well was pulsed with 1 μCi [^3H]-thymidine. Cells were harvested and the ^3[H]-thymidine uptake was determined in an LKB liquid scintillation counter (LKB, Piscataway, N.J., USA).
For orientation: Dividing cells build labelled thymidine or BrdU into new DNA.

In a further test the test system is G-CSF. As to the kind of experiment: In vivo serum G-CSF level by ELISA after chemotherapy. Also on record: species or system ICR mice. The note with it: for G-CSF (pgr/ml): serum, CPA 6 μg/kg per os 48 h and 72 h after chemotherapy where given, male ICR mice. On the procedure: Male ICR mice of the age of two months and weighing an average of 25 gr were employed. The mice were purchased from Harlan Laboratories, Jerusalem, […]. Protection of CPA-treated mice against myelotoxic effects of chemotherapy was evaluated. To this end, mice were provided with a chemotherapeutic drug, a combination of the drug with CPA or with a vehicle only. […] In particular, three test groups of mice were treated daily according to the following regimen: 1. Control group-vehicle only. 2. Chemotherapy-CYP (50 mg/kg body weight). 3. Chemotherapy+chemoprotection-CYP (50 mg/kg body weight)+CPA (6 μg/kg body weight, given through per os administration, 48 h and 72 h following chemotherapy treatment). To test the myeloprotective effect of CPA, blood samples were withdrawn from the above-mentioned groups 96 h, 120 h and 144 h following treatment with CYP, the following measurements were taken. G-CSF level-granulocyte colony stimulating factor (G-CSF) level in the serum was determined by the use of a commercial ELISA kit (R&D Systems). G-CSF activity was expressed in pgr/ml according to a standard curve of recombinant G-CSF supplied by R&D Systems.
For orientation: An ELISA detects its analyte on a solid surface through an enzyme-linked reagent.

The test system of test [2] is white blood cells (WBC) and neutrophils. The test can be described thus: In vivo protection against myelotoxic effects of chemotherapy: blood cell count (Coulter counter, differential counts). Details: species or system ICR mice. The note with it: for Neutrophils (no.) / WBC (no.): blood, CPA 6 μg/kg per os 48 h and 72 h where given; for Neutrophils (no.): control level 1200; for WBC (no.): control level 6100. How it is done:
Male ICR mice of the age of two months and weighing an average of 25 gr were employed. The mice were purchased from Harlan Laboratories, Jerusalem, […]. Protection of CPA-treated mice against myelotoxic effects of chemotherapy was evaluated. To this end, mice were provided with a chemotherapeutic drug, a combination of the drug with CPA or with a vehicle only. […] In particular, three test groups of mice were treated daily according to the following regimen: 1. Control group-vehicle only. 2. Chemotherapy-CYP (50 mg/kg body weight). 3. Chemotherapy+chemoprotection-CYP (50 mg/kg body weight)+CPA (6 μg/kg body weight, given through per os administration, 48 h and 72 h following chemotherapy treatment). To test the myeloprotective effect of CPA, blood samples were withdrawn from the above-mentioned groups 96 h, 120 h and 144 h following treatment with CYP, the following measurements were taken. Blood cell count-Blood cell count was carried out in a Coulter counter and differential cell counts were performed on smear preparations stained with May-Grunvald-Giemsa solution. Serum was separated from the whole blood and was kept at -70° C.

Test [3] concerns bone marrow cells. The settings on record: adenosine 10-50 μM, concentration dependent; cited from earlier work.

The text below walks through data of patent publication US6790839B2, “Pharmaceutical administration of adenosine agonists” (Can-Fite Biopharma Ltd., priority 1999, dated 2004).

Each structure is given as a SMILES string. “Also recorded” adds a separate entry of the source.

Take `OC[C@H]1O[C@@H](n2cnc3c(NC4CCCC4)ncnc32)[C@H](O)[C@@H]1O` [CPA, N-cyclopentyladenosine]: in the test with bone marrow cells [1] (concentrations of 0.1 and 0.01 μM, FIG 2), the “stimulation of bone marrow cell proliferation” value was “statistically significant stimulation”. The “level of G-CSF (summary in words)” value with G-CSF (combined treatment versus CYP only, CPA given orally to mice) is reported as “induces in vivo G-CSF production”. Moreover, the “in vivo protection against myelotoxicity of chemotherapeutic drugs” value in test [2] (mice given CYP 50 mg/kg, CPA 6 μg/kg per os) is “provides in vivo protection against myelotoxicity; also recorded: acts as a chemoprotective agent”.
Regarding `O=P1(N(CCCl)CCCl)NCCCO1` (stereo not shown) [CYP, cyclophosphamide], the “G-CSF (pgr/ml)” value in the test on G-CSF (96 hrs after CYP 50 mg/kg) was 511.30 pgr/ml; with G-CSF (120 hrs after CYP 50 mg/kg), 333.03 pgr/ml; in the test with G-CSF (144 hrs after CYP 50 mg/kg), 871.14 pgr/ml. Further, the “number of leukocytes and neutrophils (summary in words)” value in test [2] (CYP only versus control, combined treatment versus CYP only) was “reduce significantly”. Moreover, the “Neutrophils (no.)” value is 377 no in test [2] (96 hrs after CYP 50 mg/kg), 490 no in test [2] (120 hrs after CYP 50 mg/kg) and 1326 no in test [2] (144 hrs after CYP 50 mg/kg). In addition, the entries for the “WBC (no.)” value in test [2] (96 hrs after CYP 50 mg/kg), in test [2] (120 hrs after CYP 50 mg/kg) and in test [2] (144 hrs after CYP 50 mg/kg) were 2620 no, 2800 no and 3900 no, respectively.
Turning to `Nc1ncnc2c1ncn2[C@@H]1O[C@H](CO)[C@@H](O)[C@H]1O` [adenosine], the “3[H]-thymidine incorporation of bone marrow cells” value with bone marrow cells [3] is “stimulated”.
For the molecule `C#CCn1c(=O)c2c(ncn2C)n(C)c1=O` [DMPX, 3,7-dimethyl-1-propargyl-xanthine], the “effect on bone marrow cell proliferation” value with bone marrow cells [1] (0.1 μM, given without or with adenosine, FIG 1) is recorded as “induced a stimulatory effect”.
As to `CCCn1c(=O)c2[nH]c(C3CCCC3)nc2n(CCC)c1=O` [DPCPX, 1,3-dipropyl-8-cyclopentylxanthine], in the test with bone marrow cells [1] (0.1 μM, with adenosine, FIG 1), the “effect on adenosine-stimulated bone marrow cell proliferation” value was “significantly reversed the stimulatory effect of adenosine”.
